# Data reported in patent US12582625B2, “Methods for treating neuroblastoma” (priority 2015, dated 2026).
# Several values for one entry are separate records, joined by “and”; a condition that tells them apart may be missing. Identical values can stand only once. Entries after “also recorded” stand apart in the source; their conditions may differ.
# Columns and labels:
# [1] = system: refractory or relapsed neuroblastoma; assay: NMTRC 002: tumor response and progression free survival; type: in vivo, human; conditions: for PFS (days), individual patients: DFMO alone cycle 1, then with etoposide; for Status or Reason off study, individual patients: PF = progression free, PD = progressive disease
# Procedure: Study Design and Treatment.
# Tumor and clinical responses were monitored as secondary endpoints. Eighteen subjects were evaluated for efficacy. This study used the (RECIST) Response Evaluation Criteria measurements in Solid Tumor from the NCI (27) modified for pediatrics as well as MIBG or PET and bone marrow response. Tumor assessments/imaging studies were obtained at baseline>7 days from prior therapy and <21 days from the start of study therapy. These were repeated at the end of the first cycle and again after every other cycle.
# [2] = toxicities related to DFMO alone
# 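Wherever ALT elevation, maximum Grade 2, patients (%) is given: Open-label multicenter phase I 3+3 dose escalation in patients aged 0-21 years with relapsed or refractory neuroblastoma, dosed twice daily.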
# 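Wherever ALT elevation, maximum Grade 3, patients (%) is given: Open-label multicenter phase I 3+3 dose escalation in patients aged 0-21 years with relapsed or refractory neuroblastoma, dosed twice daily.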
# 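Wherever dose-limiting toxicities (DLTs) or drug related serious adverse events (SAEs) is given: Open-label multicenter phase I 3+3 dose escalation in patients aged 0-21 years with relapsed or refractory neuroblastoma, dosed twice daily.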
# 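Wherever tolerability in pediatric patients is given: Open-label multicenter phase I 3+3 dose escalation in patients aged 0-21 years with relapsed or refractory neuroblastoma, dosed twice daily.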
smiles,measurement,setting,value
"NCCCC(N)(C(=O)O)C(F)F (stereo not shown) [DFMO, 2,5-diamino-2-(difluoromethyl) pentanoic acid]",patients alive without progression of disease,[1]; 2-4.5 years after starting DFMO,three subjects remain alive without progression of disease; also recorded: Three patients remain alive without progression of disease
same,subjects with best response of progressive disease,[1]; 18 evaluable subjects,5
same,subjects with best response of stable disease by RECIST,[1]; 18 evaluable subjects,12
same,patients with best response of PR,"[1]; 18 evaluable subjects, MIBG evaluable disease only",1
same,"Best Response (CT/MIBG), individual patients",[1]; DFMO dose 500 mg/m^2 BID,SD/PR
same,"PFS (days), individual patients",[1]; DFMO dose 500 mg/m^2 BID,94 days and 1573 days and 1559 days
same,"Status or Reason off study, individual patients",[1]; DFMO dose 500 mg/m^2 BID,Alive (PF)
same,"PFS (days), individual patients",[1]; DFMO dose 750 mg/m^2 BID,418 days and 103 days and 67 days and 57 days and 31 days
same,"PFS (days), individual patients",[1]; DFMO dose 1000 mg/m^2 BID,239 days and 64 days and 59 days
same,"Best Response (CT/MIBG), individual patients",[1]; DFMO dose 1500 mg/m^2 BID,SD/PR; also recorded: (CT Neg)/PR
same,"PFS (days), individual patients",[1]; DFMO dose 1500 mg/m^2 BID,663 days and 209 days and 136 days and 62 days (3×) and 21 days
same,"Status or Reason off study, individual patients",[1]; DFMO dose 1500 mg/m^2 BID,Alive (PF) and 2nd Leukemia
same,mean progression free survival (PFS),"[1]; NMTRC 002, all evaluable subjects",420 days
same,PFS,[1]; ODC SNP rs2302615 genotype Any A,282.1 ± 499.6
same,PFS,[1]; ODC SNP rs2302615 genotype GG,326.7 ± 501.6
same,PFS,[1]; ODC SNP rs2302616 genotype Any T,498.0 ± 635.4
same,PFS,[1]; ODC SNP rs2302616 genotype GG,110.8 ± 119.1
same,median progression free survival (PFS),"[1]; all 18 evaluable subjects, 95% CI: 62-418 days (Saulnier Sholler et al., 2015)",80.5 days
same,PFS,[1]; patients with GG at rs2302616,110 days
same,PFS,[1]; patients with any minor T allele at rs2302616,498 days
same,response by PET scans,[1]; three subjects evaluated by PET,two had a complete response and one a partial response
same,dose-limiting toxicities (DLTs) or drug related serious adverse events (SAEs),"500-1500 mg/m^2 BID, all dose levels",No dose-limiting toxicities (DLTs) or drug related serious adverse events (SAEs) were observed
same,tolerability in pediatric patients,500-1500 mg/m^2 twice per day by mouth,well tolerated
same,"ALT elevation, maximum Grade 2, patients (%)",Cycle 1 (N = 21),1 (5%)
same,"ALT elevation, maximum Grade 3, patients (%)",Cycle 1 (N = 21),0
same,"ALT elevation, maximum Grade 4, patients (%)",Cycle 1 (N = 21),0
same,"ALT elevation, maximum Grade 5, patients (%)",Cycle 1 (N = 21),0
same,"AST elevation, maximum Grade 2, patients (%)",Cycle 1 (N = 21),0
same,"AST elevation, maximum Grade 3, patients (%)",Cycle 1 (N = 21),1 (5%)
same,"AST elevation, maximum Grade 4, patients (%)",Cycle 1 (N = 21),0
same,"AST elevation, maximum Grade 5, patients (%)",Cycle 1 (N = 21),0
same,"Anemia, maximum Grade 2, patients (%)",Cycle 1 (N = 21),2 (10%)
same,"Anemia, maximum Grade 3, patients (%)",Cycle 1 (N = 21),0
same,"Anemia, maximum Grade 4, patients (%)",Cycle 1 (N = 21),1 (5%)
same,"Anemia, maximum Grade 5, patients (%)",Cycle 1 (N = 21),0
same,"Anorexia, maximum Grade 2, patients (%)",Cycle 1 (N = 21),0
same,"Anorexia, maximum Grade 3, patients (%)",Cycle 1 (N = 21),1 (5%)
same,"Anorexia, maximum Grade 4, patients (%)",Cycle 1 (N = 21),0
same,"Anorexia, maximum Grade 5, patients (%)",Cycle 1 (N = 21),0
same,"Conjunctivitis, maximum Grade 2, patients (%)",Cycle 1 (N = 21),1 (5%)
same,"Conjunctivitis, maximum Grade 3, patients (%)",Cycle 1 (N = 21),0
same,"Conjunctivitis, maximum Grade 4, patients (%)",Cycle 1 (N = 21),0
same,"Conjunctivitis, maximum Grade 5, patients (%)",Cycle 1 (N = 21),0
same,"Constipation, maximum Grade 2, patients (%)",Cycle 1 (N = 21),1 (5%)
same,"Constipation, maximum Grade 3, patients (%)",Cycle 1 (N = 21),0
same,"Constipation, maximum Grade 4, patients (%)",Cycle 1 (N = 21),0
same,"Constipation, maximum Grade 5, patients (%)",Cycle 1 (N = 21),0
same,"Diarrhea, maximum Grade 2, patients (%)",Cycle 1 (N = 21),1 (5%)
same,"Diarrhea, maximum Grade 3, patients (%)",Cycle 1 (N = 21),0
same,"Diarrhea, maximum Grade 4, patients (%)",Cycle 1 (N = 21),0
same,"Diarrhea, maximum Grade 5, patients (%)",Cycle 1 (N = 21),0
same,"GGT elevation, maximum Grade 2, patients (%)",Cycle 1 (N = 21),1 (5%)
same,"GGT elevation, maximum Grade 3, patients (%)",Cycle 1 (N = 21),0
same,"GGT elevation, maximum Grade 4, patients (%)",Cycle 1 (N = 21),0
same,"GGT elevation, maximum Grade 5, patients (%)",Cycle 1 (N = 21),0
same,"Hypoalbumenia, maximum Grade 2, patients (%)",Cycle 1 (N = 21),1 (5%)
same,"Hypoalbumenia, maximum Grade 3, patients (%)",Cycle 1 (N = 21),0
same,"Hypoalbumenia, maximum Grade 4, patients (%)",Cycle 1 (N = 21),0
same,"Hypoalbumenia, maximum Grade 5, patients (%)",Cycle 1 (N = 21),0
same,"Hypophosphatemia, maximum Grade 2, patients (%)",Cycle 1 (N = 21),1 (5%)
same,"Hypophosphatemia, maximum Grade 3, patients (%)",Cycle 1 (N = 21),0
same,"Hypophosphatemia, maximum Grade 4, patients (%)",Cycle 1 (N = 21),0
same,"Hypophosphatemia, maximum Grade 5, patients (%)",Cycle 1 (N = 21),0
same,"Infection, sinus, maximum Grade 2, patients (%)",Cycle 1 (N = 21),0
same,"Infection, sinus, maximum Grade 3, patients (%)",Cycle 1 (N = 21),0
same,"Infection, sinus, maximum Grade 4, patients (%)",Cycle 1 (N = 21),0
same,"Infection, sinus, maximum Grade 5, patients (%)",Cycle 1 (N = 21),0
same,"Mouth pain, maximum Grade 2, patients (%)",Cycle 1 (N = 21),0
same,"Mouth pain, maximum Grade 3, patients (%)",Cycle 1 (N = 21),0
same,"Mouth pain, maximum Grade 4, patients (%)",Cycle 1 (N = 21),0
same,"Mouth pain, maximum Grade 5, patients (%)",Cycle 1 (N = 21),0
same,"Nausea, maximum Grade 2, patients (%)",Cycle 1 (N = 21),0
same,"Nausea, maximum Grade 3, patients (%)",Cycle 1 (N = 21),0
same,"Nausea, maximum Grade 4, patients (%)",Cycle 1 (N = 21),0
same,"Nausea, maximum Grade 5, patients (%)",Cycle 1 (N = 21),0
same,"Neuropathy, maximum Grade 2, patients (%)",Cycle 1 (N = 21),0
same,"Neuropathy, maximum Grade 3, patients (%)",Cycle 1 (N = 21),0
same,"Neuropathy, maximum Grade 4, patients (%)",Cycle 1 (N = 21),0
same,"Neuropathy, maximum Grade 5, patients (%)",Cycle 1 (N = 21),0
same,"Neutrophil count decrease, maximum Grade 2, patients (%)",Cycle 1 (N = 21),1 (5%)
same,"Neutrophil count decrease, maximum Grade 3, patients (%)",Cycle 1 (N = 21),1 (5%)
same,"Neutrophil count decrease, maximum Grade 4, patients (%)",Cycle 1 (N = 21),0
same,"Neutrophil count decrease, maximum Grade 5, patients (%)",Cycle 1 (N = 21),0
same,"Pain, maximum Grade 2, patients (%)",Cycle 1 (N = 21),0
same,"Pain, maximum Grade 3, patients (%)",Cycle 1 (N = 21),0
same,"Pain, maximum Grade 4, patients (%)",Cycle 1 (N = 21),0
same,"Pain, maximum Grade 5, patients (%)",Cycle 1 (N = 21),0
same,"Platelet count decrease, maximum Grade 2, patients (%)",Cycle 1 (N = 21),1 (5%)
same,"Platelet count decrease, maximum Grade 3, patients (%)",Cycle 1 (N = 21),1 (5%)
same,"Platelet count decrease, maximum Grade 4, patients (%)",Cycle 1 (N = 21),0
same,"Platelet count decrease, maximum Grade 5, patients (%)",Cycle 1 (N = 21),0
same,"Rash, maximum Grade 2, patients (%)",Cycle 1 (N = 21),0
same,"Rash, maximum Grade 3, patients (%)",Cycle 1 (N = 21),0
same,"Rash, maximum Grade 4, patients (%)",Cycle 1 (N = 21),0
same,"Rash, maximum Grade 5, patients (%)",Cycle 1 (N = 21),0
same,"Sleep disturbance, maximum Grade 2, patients (%)",Cycle 1 (N = 21),1 (5%)
same,"Sleep disturbance, maximum Grade 3, patients (%)",Cycle 1 (N = 21),0
same,"Sleep disturbance, maximum Grade 4, patients (%)",Cycle 1 (N = 21),0
same,"Sleep disturbance, maximum Grade 5, patients (%)",Cycle 1 (N = 21),0
same,"Urinary retention, maximum Grade 2, patients (%)",Cycle 1 (N = 21),1 (5%)
same,"Urinary retention, maximum Grade 3, patients (%)",Cycle 1 (N = 21),0
same,"Urinary retention, maximum Grade 4, patients (%)",Cycle 1 (N = 21),0
same,"Urinary retention, maximum Grade 5, patients (%)",Cycle 1 (N = 21),0
same,"Vomiting, maximum Grade 2, patients (%)",Cycle 1 (N = 21),1 (5%)
same,"Vomiting, maximum Grade 3, patients (%)",Cycle 1 (N = 21),0
same,"Vomiting, maximum Grade 4, patients (%)",Cycle 1 (N = 21),0
same,"Vomiting, maximum Grade 5, patients (%)",Cycle 1 (N = 21),0
same,"White blood cell decreased, maximum Grade 2, patients (%)",Cycle 1 (N = 21),0
same,"White blood cell decreased, maximum Grade 3, patients (%)",Cycle 1 (N = 21),0
same,"White blood cell decreased, maximum Grade 4, patients (%)",Cycle 1 (N = 21),0
same,"White blood cell decreased, maximum Grade 5, patients (%)",Cycle 1 (N = 21),0
same,"ALT increase, N of subjects",[2],1
same,"ANC decrease, N of subjects",[2],2
same,"AST increase, N of subjects",[2],1
same,"anemia, N of subjects",[2],3
same,"anorexia, N of subjects",[2],1
same,"constipation, N of subjects",[2],1
same,"decreased platelet count, N of subjects",[2],2
same,"diarrhea, N of subjects",[2],1
same,"hypoalbuminemia, N of subjects",[2],1
same,"hypophosphatemia, N of subjects",[2],1
same,"increased GGT, N of subjects",[2],1
same,"infection (conjunctivitis), N of subjects",[2],1
same,"sleep disturbance, N of subjects",[2],1
same,"urinary retention, N of subjects",[2],1
same,"vomiting, N of subjects",[2],1
same,maximum tolerated dose (MTD),up to 1500 mg/m^2 BID,not established
